≈ marks a conversion by molar mass, not a printed value.
Tests used:
Format in all cases: functional
Aspergillus niger = assay: Antifungal activity against Aspergillus niger by broth dilution method
Staphylococcus aureus = assay: Antibacterial activity against Staphylococcus aureus by broth dilution method
Candida albicans = assay: Antifungal activity against Candida albicans by broth dilution method
Aspergillus clavatus = assay: Antifungal activity against Aspergillus clavatus by broth dilution method
Streptococcus pyogenes = assay: Antibacterial activity against Streptococcus pyogenes by broth dilution method
Pseudomonas aeruginosa = assay: Antibacterial activity against Pseudomonas aeruginosa by broth dilution method
Escherichia coli = assay: Antibacterial activity against Escherichia coli by broth dilution method
[1] = tested on: Mycobacterium tuberculosis; assay: Antimicrobial activity against Mycobacterium tuberculosis H37Rv by broth dilution method

Compound | MIC (Aspergillus niger) [µg/mL] | MIC (Staphylococcus aureus) [µg/mL] | MIC (Candida albicans) [µg/mL] | MIC (Aspergillus clavatus) [µg/mL] | MIC (Streptococcus pyogenes) [µg/mL] | MIC (Pseudomonas aeruginosa) [µg/mL] | MIC (Escherichia coli) [µg/mL] | MIC [1] [µg/mL]
Cc1cc(Cl)nc2ccc3c(=O)c(C(=O)N/N=C/c4ccc(Cl)cc4)c[nH]c3c12 | 250 (≈ 588 µM) | 250 (≈ 588 µM) | 500 (≈ 1180 µM) | 250 (≈ 588 µM) | 250 (≈ 588 µM) | 1000 (≈ 2350 µM) | 500 (≈ 1180 µM) | 
Cc1ccc(/C=N/NC(=O)c2c[nH]c3c(ccc4nc(Cl)cc(C)c43)c2=O)cc1 | 500 (≈ 1240 µM) | 250 (≈ 618 µM) | 250 (≈ 618 µM) | 500 (≈ 1240 µM) | 250 (≈ 618 µM) | 250 (≈ 618 µM) | 200 (≈ 494 µM) | 
COc1ccccc1/C=N/NC(=O)c1c[nH]c2c(ccc3nc(Cl)cc(C)c32)c1=O | 1000 (≈ 2380 µM) | 250 (≈ 594 µM) | 500 (≈ 1190 µM) | 1000 (≈ 2380 µM) | 250 (≈ 594 µM) | 250 (≈ 594 µM) | 100 (≈ 238 µM) | 250 (≈ 594 µM)
Cc1cc(Cl)nc2ccc3c(=O)c(C(=O)N/N=C/c4ccccc4O)c[nH]c3c12 | 500 (≈ 1230 µM) | 100 (≈ 246 µM) | 100 (≈ 246 µM) | 500 (≈ 1230 µM) | 200 (≈ 492 µM) | 250 (≈ 615 µM) | 250 (≈ 615 µM) | 200 (≈ 492 µM)
Cc1cc(Cl)nc2ccc3c(=O)c(C(=O)NN4C(=O)C(Cl)C4c4cc([N+](=O)[O-])ccc4O)c[nH]c3c12 (configuration not stated) | 500 (≈ 946 µM) | 500 (≈ 946 µM) | 250 (≈ 473 µM) | 500 (≈ 946 µM) | 500 (≈ 946 µM) | 500 (≈ 946 µM) | 250 (≈ 473 µM) | 
O=C(O)c1cn(C2CC2)c2cc(N3CCNCC3)c(F)cc2c1=O [CIPROFLOXACIN] |  | 50 (≈ 151 µM) |  |  | 50 (≈ 151 µM) |  | 25 (≈ 75.4 µM) | 
COc1ccc(/C=N/NC(=O)c2c[nH]c3c(ccc4nc(Cl)cc(C)c43)c2=O)cc1 | 500 (≈ 1190 µM) | 500 (≈ 1190 µM) | 500 (≈ 1190 µM) | 500 (≈ 1190 µM) | 500 (≈ 1190 µM) | 500 (≈ 1190 µM) | 250 (≈ 594 µM) | 
Cc1cc(Cl)nc2ccc3c(=O)c(C(=O)NN4C(=O)C(Cl)C4c4ccccc4)c[nH]c3c12 (configuration not stated) | > 1000 | 250 (≈ 535 µM) | 500 (≈ 1070 µM) | > 1000 | 250 (≈ 535 µM) | 250 (≈ 535 µM) | 100 (≈ 214 µM) | 250 (≈ 535 µM)
COc1ccccc1C1C(Cl)C(=O)N1NC(=O)c1c[nH]c2c(ccc3nc(Cl)cc(C)c32)c1=O (configuration not stated) | > 1000 | 250 (≈ 503 µM) | 250 (≈ 503 µM) | > 1000 | 500 (≈ 1010 µM) | 1000 (≈ 2010 µM) | 500 (≈ 1010 µM) | 
Cc1cc(Cl)nc2ccc3c(=O)c(C(=O)NN)c[nH]c3c12 | > 1000 | 250 (≈ 826 µM) | 500 (≈ 1650 µM) | > 1000 | 200 (≈ 661 µM) | 200 (≈ 661 µM) | 100 (≈ 330 µM) | 200 (≈ 661 µM)
COc1cc(C2C(Cl)C(=O)N2NC(=O)c2c[nH]c3c(ccc4nc(Cl)cc(C)c43)c2=O)ccc1O (configuration not stated) | 500 (≈ 974 µM) | 1000 (≈ 1950 µM) | 1000 (≈ 1950 µM) | 500 (≈ 974 µM) | 1000 (≈ 1950 µM) | 500 (≈ 974 µM) | 250 (≈ 487 µM) | 
COc1ccc(C2C(Cl)C(=O)N2NC(=O)c2c[nH]c3c(ccc4nc(Cl)cc(C)c43)c2=O)cc1 (configuration not stated) | > 1000 | 500 (≈ 1010 µM) | 500 (≈ 1010 µM) | > 1000 | 500 (≈ 1010 µM) | 250 (≈ 503 µM) | 250 (≈ 503 µM) | 
O=C(N[C@H](CO)[C@H](O)c1ccc([N+](=O)[O-])cc1)C(Cl)Cl [CHLORAMPHENICOL] |  | 50 (≈ 155 µM) |  |  | 50 (≈ 155 µM) | 50 (≈ 155 µM) | 50 (≈ 155 µM) | 
Cc1cc(Cl)nc2ccc3c(=O)c(C(=O)NN4C(=O)C(Cl)C4c4ccc(Cl)cc4)c[nH]c3c12 (configuration not stated) | 500 (≈ 996 µM) | 500 (≈ 996 µM) | 200 (≈ 399 µM) | 500 (≈ 996 µM) | 500 (≈ 996 µM) | 100 (≈ 199 µM) | 100 (≈ 199 µM) | 100 (≈ 199 µM)
COc1cc(/C=N/NC(=O)c2c[nH]c3c(ccc4nc(Cl)cc(C)c43)c2=O)ccc1O | 1000 (≈ 2290 µM) | 100 (≈ 229 µM) | 250 (≈ 572 µM) | 1000 (≈ 2290 µM) | 200 (≈ 458 µM) | 500 (≈ 1140 µM) | 500 (≈ 1140 µM) | 500 (≈ 1140 µM)
Cc1cc(Cl)nc2ccc3c(=O)c(C(=O)N/N=C/c4ccccc4)c[nH]c3c12 | > 1000 | 200 (≈ 512 µM) | 250 (≈ 640 µM) | > 1000 | 250 (≈ 640 µM) | 250 (≈ 640 µM) | 250 (≈ 640 µM) | 
NYSTATIN | 100 |  | 100 | 100 |  |  |  | 
Cc1ccc(C2C(Cl)C(=O)N2NC(=O)c2c[nH]c3c(ccc4nc(Cl)cc(C)c43)c2=O)cc1 (configuration not stated) | > 1000 | 250 (≈ 519 µM) | 200 (≈ 416 µM) | > 1000 | 250 (≈ 519 µM) | 250 (≈ 519 µM) | 250 (≈ 519 µM) | 
Cc1cc(Cl)nc2ccc3c(=O)c(C(=O)N/N=C/c4cc([N+](=O)[O-])ccc4O)c[nH]c3c12 | 1000 (≈ 2210 µM) | 200 (≈ 443 µM) | 200 (≈ 443 µM) | 1000 (≈ 2210 µM) | 250 (≈ 553 µM) | 100 (≈ 221 µM) | 62.5 (≈ 138 µM) | 500 (≈ 1110 µM)
Cc1cc(Cl)nc2ccc3c(=O)c(C(=O)NN4C(=O)C(Cl)C4c4ccccc4Cl)c[nH]c3c12 (configuration not stated) | 250 (≈ 498 µM) | 200 (≈ 399 µM) | 100 (≈ 199 µM) | 250 (≈ 498 µM) | 200 (≈ 399 µM) | 250 (≈ 498 µM) | 200 (≈ 399 µM) | 
Cc1cc(Cl)nc2ccc3c(=O)c(C(=O)NN4C(=O)C(Cl)C4c4cccc([N+](=O)[O-])c4O)c[nH]c3c12 (configuration not stated) | > 1000 | 500 (≈ 946 µM) | 500 (≈ 946 µM) | > 1000 | 500 (≈ 946 µM) | 200 (≈ 379 µM) | 62.5 (≈ 118 µM) | 200 (≈ 379 µM)
Cc1cc(Cl)nc2ccc3c(=O)c(C(=O)N/N=C/c4cccc([N+](=O)[O-])c4O)c[nH]c3c12 | 500 (≈ 1110 µM) | 500 (≈ 1110 µM) | 200 (≈ 443 µM) | 500 (≈ 1110 µM) | 500 (≈ 1110 µM) | 200 (≈ 443 µM) | 150 (≈ 332 µM) | 62.5 (≈ 138 µM)
CCOC(=O)c1c[nH]c2c(ccc3nc(Cl)cc(C)c32)c1=O | 1000 (≈ 3160 µM) | 150 (≈ 474 µM) | 200 (≈ 631 µM) | 1000 (≈ 3160 µM) | 100 (≈ 316 µM) | 250 (≈ 789 µM) | 250 (≈ 789 µM) | 500 (≈ 1580 µM)
Cc1cc(Cl)nc2ccc3c(=O)c(C(=O)NN4C(=O)C(Cl)C4c4ccccc4O)c[nH]c3c12 (configuration not stated) | 1000 (≈ 2070 µM) | 500 (≈ 1030 µM) | 500 (≈ 1030 µM) | 1000 (≈ 2070 µM) | 500 (≈ 1030 µM) | 200 (≈ 414 µM) | 100 (≈ 207 µM) | 500 (≈ 1030 µM)
NNC(=O)c1ccncc1 [ISONIAZID] |  |  |  |  |  |  |  | 0.2 (≈ 1.46 µM)
CC1(C)S[C@@H]2[C@H](NC(=O)[C@H](N)c3ccccc3)C(=O)N2[C@H]1C(=O)O [AMPICILLIN] |  | 250 (≈ 715 µM) |  |  | 100 (≈ 286 µM) | 100 (≈ 286 µM) | 100 (≈ 286 µM) | 
COC1=CC(=O)C[C@@H](C)[C@]12Oc1c(Cl)c(OC)cc(OC)c1C2=O [GRISEOFULVIN] | 100 (≈ 283 µM) |  | 500 (≈ 1420 µM) | 100 (≈ 283 µM) |  |  |  | 
Cc1cc(Cl)nc2ccc3c(=O)c(C(=O)N/N=C/c4ccccc4Cl)c[nH]c3c12 | 500 (≈ 1180 µM) | 100 (≈ 235 µM) | 250 (≈ 588 µM) | > 1000 | 200 (≈ 470 µM) | 500 (≈ 1180 µM) | 500 (≈ 1180 µM) | 
CCn1cc(C(=O)O)c(=O)c2cc(F)c(N3CCNCC3)cc21 [NORFLOXACIN] |  | 10 (≈ 31.3 µM) |  |  | 10 (≈ 31.3 µM) | 10 (≈ 31.3 µM) | 10 (≈ 31.3 µM) | 

Reference: ChEMBL document CHEMBL3045610, “Pyridoquinolones containing azetidinones: synthesis and their biological evaluation” (2012)
